From PMC6691401 (Journal of Medicinal Chemistry, 2019) come the findings set out here.

In the test the target is Mab TrmD (Mycobacteroides abscessus, UniProt B1MDI3). Nature of the test: Isothermal titration calorimetry (ITC). It counts as binding. As to conditions: for LE: ligand efficiency; for GE (R^1): group efficiency of R^1. In general terms: In ITC the heat of successive injections is recorded.
Sequence of Mab TrmD (B1MDI3 entry or part of it): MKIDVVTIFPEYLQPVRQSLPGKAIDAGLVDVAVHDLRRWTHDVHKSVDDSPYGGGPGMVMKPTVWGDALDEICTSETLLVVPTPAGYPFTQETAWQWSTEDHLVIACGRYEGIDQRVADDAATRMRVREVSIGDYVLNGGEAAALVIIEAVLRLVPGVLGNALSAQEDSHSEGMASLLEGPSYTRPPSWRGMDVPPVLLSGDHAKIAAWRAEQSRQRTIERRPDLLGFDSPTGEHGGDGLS

On to `O=C(OCc1ccccc1)c1cn[nH]c1` [Compound 3, Benzyl 1H-Pyrazole-4-carboxylate], for which the LE was 0.41 kcal mol^–1 per heavy atom. In addition, the LE (Table 1) was 0.41 kcal mol^–1 per heavy atom.

On to `N#Cc1cccc(COC(=O)c2cn[nH]c2)c1` [Compound 6, 3-Cyanobenzyl 1H-Pyrazole-4-carboxylate], for which, under “Table 1”, the LE was 0.36 kcal mol^–1 per heavy atom.

The term Kd denotes the free concentration of one partner at which half of the binding sites on the other are occupied at equilibrium, for simple one-to-one binding. Take `CC(C)N1CCN(Cc2ccc(Cn3ccc4ccc(-c5[nH]nc(N)c5C#N)cc43)cc2)CC1` [Compound 29e, 3-Amino-5-(1-(4-((4-isopropylpiperazin-1-yl)methyl)benzyl)-1H-indol-6-yl)-1H-pyrazole-4-carbonitrile]: the LE was 0.28 kcal mol^–1 per heavy atom. Besides, where the note is “Table 6”, binding was put at a Kd of 0.1 ± 0.024 µM and the LE is listed as 0.28 kcal mol^–1 per heavy atom.

On to `N#Cc1c(N)n[nH]c1-c1ccc2ccn(Cc3ccncc3)c2c1` [Compound 26l, 3-Amino-5-(1-(pyridin-4-ylmethyl)-1H-indol-6-yl)-1H-pyrazole-4-carbonitrile], for which the “fold improvement in binding affinity (decrease of Kd) relative to 26f” value amounted to 4 fold and the LE is given as 0.39 kcal mol^–1 per heavy atom. Also, where the note is “Table 5”, the “GE (R^1)” value is listed as 0.31 kcal mol^–1 per heavy atom and the LE is recorded as 0.39 kcal mol^–1 per heavy atom.

On to `COc1cccc(Cn2ccc3ccc(-c4cc(N)n[nH]4)cc32)c1` [Compound 24b, 5-(1-(3-Methoxybenzyl)-1H-indol-6-yl)-1H-pyrazol-3-amine], for which the LE is reported as 0.28 kcal mol^–1 per heavy atom. Further, where the note is “Table 4”, the “GE (R^1)” value is 0.14 kcal mol^–1 per heavy atom and the LE is 0.28 kcal mol^–1 per heavy atom. In addition, for the setting “group efficiency of the added group”, the GE is given as 0.14 kcal mol^–1 per heavy atom.

Take `CN1CCCC(Cn2ccc3ccc(-c4[nH]nc(N)c4C#N)cc32)C1` (stereo not shown) [Compound 26o, 3-Amino-5-(1-((1-methylpiperidin-3-yl)methyl)-1H-indol-6-yl)-1H-pyrazole-4-carbonitrile]: the LE is recorded as 0.35 kcal mol^–1 per heavy atom. Moreover, under “Table 5”, the “GE (R^1)” value is listed as 0.20 kcal mol^–1 per heavy atom and the LE is 0.35 kcal mol^–1 per heavy atom.

Turning to `CCOC(=O)c1cnn(CC#Cc2cc(COC(=O)c3cn[nH]c3)cc(OC)c2)c1` [Compound 12, Ethyl 1-(3-(3-(((1H-Pyrazole-4-carbonyl)oxy)methyl)-5-methoxyphenyl)prop-2-yn-1-yl)-1H-pyrazole-4-carboxylate], the LE is on record as 0.24 kcal mol^–1 per heavy atom. Where the note is “Table 2”, the LE is given as 0.24 kcal mol^–1 per heavy atom.

For `COc1cc(COC(=O)c2cn[nH]c2)cc(Cc2cccnc2)c1` [Compound 15], the LE is given as 0.28 kcal mol^–1 per heavy atom. Moreover, the LE (Table 2) is 0.28 kcal mol^–1 per heavy atom.

For the compound `CN1CCCCC1Cn1ccc2ccc(-c3[nH]nc(N)c3C#N)cc21` (stereo not shown) [Compound 26n, 3-Amino-5-(1-((1-methylpiperidin-2-yl)methyl)-1H-indol-6-yl)-1H-pyrazole-4-carbonitrile], the LE is given as 0.34 kcal mol^–1 per heavy atom. In addition, under “Table 5”, the “GE (R^1)” value is 0.16 kcal mol^–1 per heavy atom and the LE is 0.34 kcal mol^–1 per heavy atom.

For `COc1cc(COC(=O)c2cn[nH]c2)cc(-c2cccnc2)c1` [Compound 14, 3-Methoxy-5-(pyridin-3-yl)benzyl 1H-Pyrazole-4-carboxylate], the LE is listed as 0.31 kcal mol^–1 per heavy atom. For the setting “Table 2”, the LE is listed as 0.31 kcal mol^–1 per heavy atom.

On to `COc1cccc(COC(=O)c2cn[nH]c2)c1` [Compound 7, 3-Methoxybenzyl 1H-Pyrazole-4-carboxylate], for which the LE is on record as 0.39 kcal mol^–1 per heavy atom. The LE (Table 1) is listed as 0.39 kcal mol^–1 per heavy atom.

Turning to `N#Cc1ccccc1Cn1ccc2ccc(-c3cc(N)n[nH]3)cc21` [Compound 24d, 2-((6-(3-Amino-1H-pyrazol-5-yl)-1H-indol-1-yl)methyl)benzonitrile], the LE is on record as 0.28 kcal mol^–1 per heavy atom. Where the note is “Table 4”, the “GE (R^1)” value is recorded as 0.15 kcal mol^–1 per heavy atom and the LE is recorded as 0.28 kcal mol^–1 per heavy atom.
